According to patent US6818646B2 (priority 2000, dated 2004):

What follows are molecules tested against T1, PDEV (Homo sapiens, UniProt O76074) (assay: PDE assay: inhibition of PDEV isolated from human tissue). Settings: PDEV inhibitory activity.
T1 construct: PDEV was isolated from rabbit and human tissues according to the protocol described by Boolell et al; from tissue; host or cells: human tissue, homogenate supernatant fractionated on Mono Q
Format: biochemical
Procedure: Briefly, rabbit or human tissues were homogenized in an ice-cold buffer solution containing 20 mM HEPES (pH 7.2), 0.25M sucrose, 1 mM EDTA, and 1 mM phenylmethylsulphonyl fluoride (PMSF). The homogenates were centrifuged at 100,000 g for 60 minutes at 4° C. The supernatant was filtered through […] filter and loaded on a Pharmacia Mono Q anion exchange column (1 ml bed volume) that was equilibrated with 20 mM HEPES, 1 mM EDTA and 0.5 mM PMSF. After washing out unbound proteins, the enzymes were eluted with a linear gradient of 100-600 mM NaCl in the same buffer (35 to 50 ml total, depending on the tissue. Enzymes from the skeletal muscle, corpus cavernosum, retina, heart and platelet were eluted with 35, 40, 45, 50, and 50 ml respectively.) The column was run at a flow rate of 1 ml/min and 1 ml fractions were collected. The fractions comprising various PDE activities were pooled separately and used in later studies.
The assays were adapted to a 96-well format. The enzyme was assayed in 5 mM MgCl2, 15 mM Tris HCl (pH 7.4), 0.5 mg/ml bovine serum albumin, 1 μM cGMP or cAMP, 0.1 μCi [^3H]-cGMP or [^3H]-cAMP, and 2-10 μl of column elution. The total volume of the assay was 100 μl. The reaction mixture was incubated at 30° C. for 30 minutes. The reaction was stopped by boiling for 1 minute and then cooled down on ice. The resulting [^3H]5′-mononucleotides were further converted to uncharged [^3H]-nucleosides by adding 25 μl 1 mg/ml snake venom (Ophiophagus hannah) and incubating at 30° C. for 10 minute. The reaction was stopped by the addition of 1 ml Bio-Rad AG1-X2 resin slurry (1:3). All the charged nucleotides were bound by the resin and only uncharged [^3H]-nucleosides remained in the supernatant after centrifuging. An aliquot of 200 μl was taken and counted by liquid scintillation. PDE activity was expressed as pmol cyclic nucleotide hydrolyzed/min/ml of enzyme preparation.
Inhibitor studies were carried out in assay buffer with a final concentration of 10% DMSO.
The % inhibition of the maximum substrate conversion (by the enzyme in the absence of inhibitor) was calculated for each test compound concentration. Using GraphPad Prism's nonlinear regression analysis (sigmoidal dose response), the % inhibition vs log of the test compound concentration was plotted to determine the IC50. Under conditions where substrate concentration <<Km of the enzyme (Km=substrate concentration at which half of the maximal velocity of the enzyme is achieved), Ki is equivalent to the IC50 value.
Unless otherwise noted, PDEV inhibitory activities were measured using human tissue. The abbreviation “stereo” refers to the stereogenic configuration, the abbreviation “Rac” shall denote a racemic mixture.

Question: Which IC50 does the source give for O=C(c1ccc(-c2ccc([N+](=O)[O-])cc2)o1)N1Cc2c(nc3ccccc3c2O)C1c1ccc2c(c1)OCO2 (racemic) [Compound 16, 1,2,3,4-Tetrahydro-3-(3,4-methylenedioxyphenyl)-2-[5-(4-nitrophenyl)-furoyl]-9H-pyrrolo[3,4-b]quinolin-9-one] here?
Answer: 0.39 nM

Question: With O=C(c1ccc(-c2ccco2)o1)N1Cc2c(nc3ccccc3c2O)C1c1ccc2c(c1)OCO2 (racemic) [Compound 117] as the molecule, how does the IC50 read?
Answer: 4.75 nM

Question: With CN1CCN(C(=O)c2ccc(-c3ccc(C(=O)N4Cc5c([nH]c6ccccc6c5=O)[C@H]4c4ccc5c(c4)OCO5)o3)cc2)CC1 [Compound 69, (R)-1,2,3,4-Tetrahydro-3-(3,4-methylenedioxyphenyl)-2-(5-(4-(1-(4-methyl)-piperazinylcarbonyl)-phenyl)-furoyl)-9H-pyrrolo[3,4-b]quinolin-9-one] as the molecule, how does the IC50 read?
Answer: 0.32 nM

Question: Which IC50 does the source give for O=c1c2c([nH]c3ccccc13)C(c1ccc3c(c1)OCO3)N(Cc1ccccc1)C2 (racemic) [Compound 54, 1,2,3,4-Tetrahydro-2-benzyl-3-(3,4-methylenedioxyphenyl)-9H-pyrrolo-[3,4-b]quinolin-9-one] here?
Answer: 234 nM

Question: With COc1ccc(-c2ccc(C(=O)N3Cc4c([nH]c5ccccc5c4=O)C3c3ccc4c(c3)OCO4)o2)cc1 (stereo not drawn) [Compound 21, 1,2,3,4-Tetrahydro-3-(3,4-methylenedioxyphenyl)-2-[5-(4-methoxyphenyl)-furoyl]-9H-pyrrolo[3,4-b]-quinolin-9-one] as the molecule, how does the IC50 read?
Answer: 1.93 nM

Question: For O=C(c1ccc(-c2ccsc2)o1)N1Cc2c(nc3ccccc3c2O)C1c1ccc2c(c1)OCO2 (racemic) [Compound 112], which IC50 is on record?
Answer: 0.699 nM

Question: With Oc1c2c(nc3ccccc13)C(c1ccc3c(c1)OCO3)N(c1ncc(-c3cccnc3)cn1)C2 (racemic) [Compound 56, 1,2,3,4-Tetrahydro-2-[5-(3-pyridinyl)-pyrimidin-2-yl]-3-(3,4-methylenedioxyphenyl)-9H-pyrrolo-[3,4-b]quinolin-9-one] as the molecule, how does the IC50 read?
Answer: 1.24 nM

Question: For O=C(c1cc2ccc(O)cc2o1)N1Cc2c(nc3ccccc3c2O)C1c1ccc2c(c1)OCO2 (racemic) [Compound 9, 1,2,3,4-Tetrahydro-3-(3,4-methylenedioxyphenyl)-2-(6-hydroxy-2-benzo-furoyl)-9H-pyrrolo[3,4-b]quinolin-9-one], which IC50 is on record?
Answer: 0.46 nM

Question: Which IC50 does the source give for O=C(O)c1ccc(/C=C/C(=O)N2Cc3c([nH]c4ccccc4c3=O)C2c2ccc3c(c2)OCO3)cc1 (racemic) [Compound 8, (E)-4-[3-Oxo-3-[1,2,3,4-tetrahydro-3-(3,4-methylenedioxyphenyl)-9H-pyrrolo-[3,4-b]quinolin-9-one-2-yl]-1-propenyl]benzoic acid] here?
Answer: 0.828 nM

Question: Which IC50 does the source give for COc1ccc(-c2cnc(N3Cc4c([nH]c5ccccc5c4=O)C3c3ccc4c(c3)CCO4)nc2)cc1 (stereo not drawn) [Compound 39, 1,2,3,4-Tetrahydro-2-[5-(4-methoxyphenyl)-pyrimidin-2-yl]-3-(2,3-dihydrobenzofuranyl)-9H-pyrrolo-[3,4-b]quinolin-9-one] here?
Answer: 0.47 nM

Question: Oc1c2c(nc3ccccc13)C(c1ccc3c(c1)CCO3)N(c1ncccn1)C2 (racemic) [Compound 123, 3-(2,3-Dihydro-benzofuran-5-yl)-2-pyrimidin-2-yl-1,2,3,4-tetrahydro-pyrrolo[3,4-b]quinolin-9-one] was tested. Which IC50 did it give?
Answer: 12.8 nM

Question: Which IC50 does the source give for O=c1c2c([nH]c3ccccc13)C(c1ccc3c(c1)CCO3)N(c1ncc(-c3ccccn3)cn1)C2 (stereo not drawn) [Compound 61] here?
Answer: 1.03 nM

Question: How did the IC50 turn out when COC(=O)c1ccc(/C=C/C(=O)N2Cc3c([nH]c4ccccc4c3=O)C2c2ccc3c(c2)CCO3)cc1 (racemic) [Compound 20, (E)-4-[3-Oxo-3-[1,2,3,4-tetrahydro-3-(2,3-dihydrobenzofuran-5-yl)-9H-pyrrolo-[3,4-b]quinolin-9-one-2-yl]-1-propenyl]benzoic acid, methyl ester] was run?
Answer: 0.53 nM

Question: With O=c1c2c([nH]c3ccccc13)C(c1ccc3c(c1)OCO3)N(c1ncc(Br)cn1)C2 (racemic) [Compound 55, 1,2,3,4-Tetrahydro-2-(5-bromopyrimidin-2-yl)-3-(3,4-methylenedioxyphenyl)-9H-pyrrolo-[3,4-b]quinolin-9-one] as the molecule, how does the IC50 read?
Answer: 4.48 nM

Question: With Cc1ccc(-c2cnc(N3Cc4c([nH]c5ccccc5c4=O)C3c3ccc4c(c3)OCO4)nc2)cc1 (racemic) [Compound 7, 1,2,3,4-Tetrahydro-2-[5-(4-methylphenyl)-pyrimidin-2-yl]-3-(3,4-methylenedioxyphenyl)-9H-pyrrolo-[3,4-b]quinolin-9-one] as the molecule, how does the IC50 read?
Answer: 0.325 nM

Question: For CN1CCN(C(=O)c2ccc(-c3ccc(C(=O)N4Cc5c([nH]c6ccccc6c5=O)C4c4ccc5c(c4)OCO5)o3)cc2)CC1 (stereo not drawn) [Compound 44, 1,2,3,4-Tetrahydro-3-(3,4-methylenedioxyphenyl)-2-(5-(4-(1-(4-methyl)piperazinylcarbonyl)-phenyl)-furoyl)-9H-pyrrolo[3,4-b]quinolin-9-one], which IC50 is on record?
Answer: 1.58 nM

Question: With Oc1c2c(nc3ccccc13)C(c1ccc3c(c1)OCO3)N(c1ncc(-c3cccnc3)cn1)C2 (racemic) [Compound 100] as the molecule, how does the IC50 read?
Answer: 0.52 nM

Question: O=c1c2c([nH]c3ccccc13)C(c1ccc3c(c1)OCO3)N(c1ncc(-c3ccncc3)cn1)C2 (racemic) [Compound 99] was tested. Which IC50 did it give?
Answer: 0.84 nM

Question: How did the IC50 turn out when Nc1ccc(-c2ccc(C(=O)N3Cc4c([nH]c5ccccc5c4=O)C3c3ccc4c(c3)OCO4)o2)cc1 (racemic) [Compound 26, 1,2,3,4-tetrahydro-3(3,4-methylenedioxyphenyl)2-[5-(4-aminophenyl)-furoyl]-9H-pyrrolo[3,4-b]quinolin-9-one] was run?
Answer: 1.92 nM

Question: Which IC50 does the source give for O=C(c1ccc(-c2ccc(O)cc2)o1)N1Cc2c(nc3ccccc3c2O)C1c1ccc2c(c1)OCO2 (racemic) [Compound 22, 1,2,3,4-Tetrahydro-3-(3,4-methylenedioxyphenyl)-2-[5-(4-hydroxyphenyl)furoyl]-9H-pyrrolo[3,4-b]-quinolin-9-one] here?
Answer: 0.86 nM

Question: With O=C(c1ccc(-c2cccc(C(F)(F)F)c2)o1)N1Cc2c([nH]c3ccccc3c2=O)C1c1ccc2c(c1)OCO2 (stereo not drawn) [Compound 13, 1,2,3,4-Tetrahydro-3-(3,4-methylenedioxyphenyl)-2-[5-(3-trifluoromethylphenyl)furoyl]-9H-pyrrolo-[3,4-b]quinolin-9-one] as the molecule, how does the IC50 read?
Answer: 0.227 nM

Question: Which IC50 does the source give for O=c1c2c([nH]c3ccccc13)[C@@H](c1ccc3c(c1)CCO3)N(Cc1ccccc1)C2 [Compound 77, (R)-1,2,3,4-Tetrahydro-2-benzyl-3-(2,3-dihydrobenzofuran-5-yl)-9H-pyrrolo-[3,4-b]quinolin-9-one] here?
Answer: 62.7 nM

Question: COc1ccc(-c2cnc(N3Cc4c([nH]c5ccccc5c4=O)C3c3ccc4c(c3)OCO4)nc2)cc1OC (racemic) [Compound 1, 1,2,3,4-Tetrahydro-2-[5-(3,4-dimethoxyphenyl)-pyrimidin-2-yl]-3-(3,4-methylenedioxyphenyl)-9H-pyrrolo-[3,4-b]quinolin-9-one] was tested. Which IC50 did it give?
Answer: 0.165 nM

Question: With O=C(c1ccc(-c2ccc(OCCN3CCCC3)cc2)o1)N1Cc2c(nc3ccccc3c2O)C1c1ccc2c(c1)OCO2 (racemic) [Compound 45, 1,2,3,4-Tetrahydro-3-(3.4-methylenedioxyphenyl)-2-(5-(4-(2-(1-pyrrolidinyl)ethoxy)phenyl)-furoyl)-9H-pyrrolo[3,4-b]quinolin-9-one] as the molecule, how does the IC50 read?
Answer: 1.33 nM

Question: How did the IC50 turn out when COC(=O)c1ccc(-c2ccc(C(=O)N3Cc4c([nH]c5ccccc5c4=O)C3c3ccc4c(c3)OCO4)o2)cc1 (stereo not drawn) [Compound 24, 1,2,3,4-Tetrahydro-3-(3,4-methylenedioxyphenyl)-2-[5-(4-methoxycarbonylphenyl)-furoyl]-9H-pyrrolo[3.4-b]-quinolin-9-one] was run?
Answer: 1.21 nM

Question: Which IC50 does the source give for Oc1c2c(nc3ccccc13)C(c1ccc3c(c1)OCO3)N(c1ncccn1)C2 (racemic) [Compound 11, 1,2,3,4-Tetrahydro-2-(pyrimidin-2-yl)-3-(3,4-methylenedioxyphenyl)-9H-pyrrolo-[3,4-b]quinolin-9-one] here?
Answer: 3.73 nM

Question: COC(=O)c1ccc(/C=C/C(=O)N2Cc3c([nH]c4ccccc4c3=O)C2c2ccc3c(c2)OCO3)cc1 (racemic) [Compound 6, (E)-4-[3-Oxo-3-[1,2,3,4-tetrahydro-3-(3,4-methylenedioxyphenyl)-9H-pyrrolo-[3,4-b]quinolin-9-one-2-yl]-1-propenyl]benzoic Acid Methyl Ester] was tested. Which IC50 did it give?
Answer: 0.507 nM
